# Test results reported in publication PMC12770539 (Scientific Reports, 2025).
# Tests used:
# [1] = cited from earlier work
# TGA analysis = assay type: physicochemical
# [2] = oral administration, 30 mg/kg dose; cited from earlier work
# [3] = cited from earlier work; remark: listed apart in the source
smiles,measurement,setting,value
C[C@@H]1O[C@@H]1P(=O)(O)O [Fosfomycin calcium],absorption,[1]; oral,10–30%
C[C@@H]1O[C@@H]1P(=O)(O)O.NC(CO)(CO)CO [Fosfomycin tromethamine],elimination half-life,[1],2 h
same,serum concentration (Cmax),[1]; single 3-gm dose,26.1 (± 9.1) µg/mL
C[C@@H]1O[C@@H]1P(=O)(O)O [Fosfomycin],temperature at which degradation initiates (TGA),TGA analysis,150 °C
same,temperature range of marked weight loss (TGA),TGA analysis,200–400 °C
same,calculated Tmax,[2],3.00 ± 0.00 h
same,mean peak concentration (Cmax),[2],3600 ± 960 ng/mL
Cc1ncc([N+](=O)[O-])n1CCO [Metronidazole],"local irritation, share of users",[3]; vaginal administration,10–15%
same,cure rate for bacterial vaginosis,"[3]; vaginal suppositories, within 7 days",~80%
